Experimental data published in patent US6543181B1, “Fruit fly attractant compositions” (Iowa State University Research Foundation, Inc., priority 2001, dated 2003).

Legend:
[1] = system: Drosophila melanogaster adult fruit flies; experiment: Attraction-trapant behavioral bioassay (cup traps in screen cages); type: in vivo; settings: for Catches per day (mean ± S.E.): 100-150 flies released
Description: Three different sizes of screen cages (w×h×l: 26 cm×26 cm×30 cm; 48×61×61; and 88×36×46) were used for the trapping experiments. Trapping experiments were carried out either in the laboratories, or in nearby green houses.
The attraction-trapant assay traps were constructed from cylindrical, clear plastic jelly cups (4.0 cm I.D. at top, 3.0 cm I.D. bottom; 2.5 cm high) with a tightly fitting paper lid. The lids were pre-drilled with a hole having a diameter of about 2 mm, which was the only aperture through which volatiles from candidate attractants could emanate, and also the only entrance through which attracted flies could enter the trap chamber. In all experiments, a 1-cm-long, 0.5-cm-diameter piece of cotton dental wick was used as the substrate onto which different compositions of potential attractants were loaded for testing, and then the wick was placed in the bottom of the cup and the lid then sealed in position at the beginning of testing.
Traps containing a series of compositions to be compared were tested in a randomized, complete-block design, with one replicate of a treatment series deployed per cage. The traps were placed in an array with usually approximately 15 cm between traps. If three treatments were to be compared (including control), the array took the form of a triangle. If there were four treatments, then the four trap-cups formed a square.
No glue or toxicant was used inside the traps, and captures depended on the ability of the attractant-trapant composition to both attract the fruit flies as well as retain them in the chamber by keeping them from wandering back to the entrance hole on the lid and exiting through it. During these assays, observations of the fruit flies' behavior were often made, and they could routinely be observed flying slowly around the cage before descending to one of the traps on the floor of the cage, landing on it, and then walking more or less directly to the hole on the lid and entering the trap.
[…] […] During this period the trap positions were rotated at several hour intervals in order to minimize any possible trap position effects.

[2] = system: Drosophila melanogaster antennae; set-up: key to the marks not given beside the values
[3] = Table 3, 10 mg in cup trap, traps checked daily for 5 days
[4] = Table 4, ratios of acetic acid and 2-phenylethanol, total lure 10 mg, no water added, checked daily for 5 days

SMILES | Catches per day (mean ± S.E.) [1, 3] | also measured
CCOC(=O)Cc1ccccc1 [ethylphenyl acetate] | 1.5 ± 0.5 | –
CC(=O)OCCc1ccccc1 [2-phenylethyl acetate] | 1.87 ± 0.81 | –
CC(=O)OCc1ccccc1 [phenylmethyl acetate] | 0.5 ± 0.27 | –
CCOC(=O)c1ccccc1 [ethyl benzoate] | 0.25 ± 0.16 | –
C=CCc1ccc(OC)c(OC)c1 [1,2-dimethoxy-4-(2-propenyl)-benzene] | – | EAG activity [2]: +++
CCCCOC(C)=O [butyl acetate] | – | EAG activity [2]: +++
OCCc1ccccc1 [2-phenylethanol] | 3.15 ± 1.63 | Catches per day (mean ± S.E.) ([1]; Table 3, 1 mg in cup trap, traps checked daily for 5 days): 0.5 ± 0.29; Catches per day (mean ± S.E.) ([1]; Table 3, 5 mg in cup trap, traps checked daily for 5 days): 1.25 ± 0.63; Catches per day (mean ± S.E.) [1, 4]: 0 ± 0
CCOC(=O)c1ccccc1O [ethyl salicylate] | 0.37 ± 0.18 | –
CC(=O)O [Acetic acid] | – | Catches per day (mean ± S.E.) [1, 4]: 3.0 ± 1.08; Trap catches ([1]; Table 13, effect of ethyl acetate, 8 replicates): 0.25 ± 0.16
CCOC(=O)C=Cc1ccccc1 [Ethyl cinnamate] | 0.75 ± 0.49 | –
